Peptide text beside a SMILES is read from it. * marks the point of attachment. Cbz = O=C(OCc1ccccc1)*; CH2F = FC*

We go through three molecules from US20110038855A1, “TRAIL AND METHODS OF MODULATING T CELL ACTIVITY AND ADAPTIVE IMMUNE RESPONSES USING TRAIL” (priority 2005, published 2011).

Test [1] concerns E1B192-200-specific CD8+ T cells. Format: cell-based, mouse. The note with it: for secondary expansion of purified helpless CD8+ T cells (fold expansion of IFN-γ-producing E1B192-200-specific CD8+ T cells): caspase inhibitors 20 μM, 6 days after in vitro restimulation, CD4-depleted mice, FIGS. 1a, 1b.
Test [2] relates to GP33-41-specific CD8+ T cells. Format: cell-based, mouse. The note with it: 6 days.

Turning to `CC(C)C(NC(=O)c1ccc2ccccc2n1)C(=O)NC(CC(=O)O)C(=O)COc1c(F)cccc1F` (stereo not drawn) [qVD-OPh, quinoline-Val-Asp-CH2-difluorophenoxy], the “secondary expansion of purified helpless CD8+ T cells (fold expansion of IFN-γ-producing E1B192-200-specific CD8+ T cells)” value in test [1] is recorded as “restored secondary expansion”.

In the case of `COC(=O)C[C@H](NC(=O)[C@H](C)NC(=O)[C@@H](NC(=O)OCc1ccccc1)C(C)C)C(=O)CF` [zVAD-fmk, benzyloxycarbonyl-Val-Ala-Asp-fluoromethyl ketone] (Cbz-Val-Ala-Asp(OMe)-CH2F), the “secondary expansion of purified helpless CD8+ T cells (fold expansion of IFN-γ-producing E1B192-200-specific CD8+ T cells)” value in test [1] was “restored secondary expansion”. Besides, the “secondary expansion of helpless LCMV-specific CD8+ T cells” value in test [2] was “restored”.

B1: recombinant TRAIL (protein)
chain: PRGGRPQKVAAHITGITRRSNSALIPISKDGKTLGQKIESWESSRKGHSFLNHVLFRNGELVIEQEGLYYIYSQTYFRFQEAEDASKMVSKDKVRTKQLVQYIYKYTSYPDPIVLMKSARNSCWSRDAEYGLYSIYQGGLFELKKNDRIFVSVTNEHLMDLDQEASFFGAFLIN
Consider B1, for which the “secondary expansion of helpless CD8+ T cells from TRAIL-deficient mice in presence of exogenous TRAIL” value in test [1] (CD4-depleted TRAIL-/- mice, 6 days, FIG. 4b) is “failed to do so”. Moreover, in test [1] (intact wild type mice, 6 days, FIG. 4a), the “secondary expansion of helped CD8+ T cells in presence of exogenous TRAIL” value is given as “completely inhibited secondary expansion”.
